Activity calls are given as the source filed them. The rule behind the calls is not given here.

Assay [1] has as its system MCF7. Description: MDR-reversal in paclitaxel-resistant […] cell growth assay as reduction of IC50 at 1uM. Format: functional, cell-based, Homo sapiens.
The test system of assay [2] is MCF7. Description: MDR-reversal in paclitaxel-resistant […] cell growth assay as reduction of IC50 at 0.1uM. The format is functional, cell-based, Homo sapiens.
Assay [3] deals with MCF7. Description: MDR-reversal in paclitaxel-resistant […] cell growth assay. The format is functional, cell-based. The following applies: Homo sapiens.

`C=C1[C@H]2C[C@@H]3C[C@H](O)C(C)=C([C@@H](OC(C)=O)[C@H](OC(C)=O)[C@]2(C)[C@@H](OC(C)=O)C[C@@H]1O)[C@@H]3C`: the “percent reduction of paclitaxel IC50” value in the assay with MCF7 [1] came out at 47%. In the case of `CC(=O)O[C@H]1C[C@H](OC(=O)/C=C/c2ccccc2)[C@@]2(CO2)[C@H]2C[C@@H]3C[C@H](OC(C)=O)[C@]4(C)O[C@@]4([C@@H]3C)[C@@H](OC(C)=O)[C@H](OC(C)=O)[C@]12C`, in the assay with MCF7 [2], the IC50 reduction was 2%. Further, in the assay on MCF7 [1], the “percent reduction of paclitaxel IC50” value was 70%.

`C=C1[C@H]2C[C@@H]3C[C@H](OC(=O)[C@H](O)[C@H](CC(C)C)NC(=O)OC(C)(C)C)C(C)=C([C@@H](OC(C)=O)[C@H](OC(C)=O)[C@]2(C)[C@@H](OC(C)=O)C[C@@H]1O)[C@@H]3C`: the “percent reduction of paclitaxel IC50” value in the assay on MCF7 [1] was found to be 93%. With `C=C1[C@@H](OC(=O)/C=C/c2ccccc2)C[C@H](OC(C)=O)[C@]2(C)[C@@H]1C[C@@H]1C[C@H](OC(=O)/C=C/c3ccccc3)C(C)=C([C@@H](OC(C)=O)[C@@H]2OC(C)=O)[C@@H]1C`, in the assay with MCF7 [3], the outcome was inactive. Consider `C=C1[C@H]2C[C@@H]3C[C@H](OC(=O)/C=C/c4ccccc4)C(C)=C([C@@H](OC(C)=O)[C@H](OC(C)=O)[C@]2(C)[C@@H](OC(C)=O)C[C@@H]1O)[C@@H]3C`, for which the IC50 reduction in the assay with MCF7 [2] was 35%. Also, the “percent reduction of paclitaxel IC50” value with MCF7 [1] amounted to 92%. The corresponding values for `C=C1[C@H]2C[C@@H]3C[C@H](OC(=O)c4ccccc4)C(C)=C([C@@H](OC(C)=O)[C@H](OC(C)=O)[C@]2(C)[C@@H](OC(C)=O)C[C@@H]1O)[C@@H]3C` are 67% and 95%. For `C=C1[C@@H](OC(=O)c2ccccc2)C[C@H](OC(C)=O)[C@]2(C)[C@@H]1C[C@@H]1C[C@H](OC(C)=O)C(C)=C(C1C)[C@@H](OC(C)=O)[C@@H]2OC(C)=O` (single isomer, unassigned), the outcome in the assay on MCF7 [3] was inactive. With `CC(=O)O[C@H]1C[C@H]2C[C@@H]3[C@]4(CO4)[C@@H](OC(=O)/C=C/c4ccccc4)C[C@H](OC(C)=O)[C@@]3(C)[C@@H](OC(C)=O)[C@H](OC(C)=O)C(=C1C)[C@@H]2C`, the “percent reduction of paclitaxel IC50” value with MCF7 [1] is 85%. On the same count and under the same terms, under `C=C1[C@@H](O[Si](CC)(CC)CC)C[C@H](OC(C)=O)[C@]2(C)[C@@H]1C[C@@H]1C[C@H](OC(C)=O)C(C)=C(C1C)[C@@H](OC(C)=O)[C@@H]2OC(C)=O` (single isomer, unassigned) stands 92%.

Regarding `C=C1[C@@H](OC(=O)[C@@H]2OC(c3ccc(OC)cc3OC)N(C(=O)OC(C)(C)C)[C@H]2CC(C)C)C[C@H](OC(C)=O)[C@]2(C)[C@@H]1C[C@@H]1C[C@H](OC(C)=O)C(C)=C([C@@H](OC(C)=O)[C@@H]2OC(C)=O)[C@@H]1C` (some centres undefined), in the assay with MCF7 [3], the result was inactive. In the case of `C=C1[C@@H](OC(=O)/C=C/c2ccccc2)C[C@H](OC(C)=O)[C@]2(C)[C@@H]1C[C@@H]1C[C@H](OC(=O)C(O)[C@@H](CC(C)C)NC(=O)OC(C)(C)C)C(C)=C([C@@H](OC(C)=O)[C@@H]2OC(C)=O)[C@@H]1C` (some centres undefined), the result with MCF7 [3] was inactive. Regarding `C=C1[C@@H](OC(=O)/C=C/c2ccccc2)C[C@H](OC(C)=O)[C@]2(C)[C@@H]1C[C@@H]1C[C@H](OC(C)=O)[C@]3(C)O[C@@]3([C@@H]1C)[C@@H](OC(C)=O)[C@@H]2OC(C)=O`, the IC50 reduction in the assay on MCF7 [2] is on record as 22%. For the same compound, the “percent reduction of paclitaxel IC50” value in the assay on MCF7 [1] is 92%. The corresponding values for `C=C1[C@H]2C[C@@H]3C[C@H](OC(=O)[C@@H](O)Cc4ccccc4)C(C)=C([C@@H](OC(C)=O)[C@H](OC(C)=O)[C@]2(C)[C@@H](OC(C)=O)C[C@@H]1O)[C@@H]3C` are 24% and 89%. For `C=C1[C@@H](OC(=O)/C=C/c2ccccc2)C[C@H](OC(C)=O)[C@]2(C)[C@@H]1C[C@@H]1C[C@H](OC(=O)[C@@H]3OC(c4ccc(OC)cc4OC)N(C(=O)OC(C)(C)C)[C@H]3CC(C)C)C(C)=C([C@@H](OC(C)=O)[C@@H]2OC(C)=O)[C@@H]1C` (some centres undefined), the result in the assay on MCF7 [3] was inactive.

The values are drawn from ChEMBL document CHEMBL1144603, “Synthesis and biological evaluation of new taxoids derived from 2-deacetoxytaxinine J” (Bioorg Med Chem Lett, 2007).
